Key:
[1] = system: histological damage in the cerebral cortex after mid-cerebral artery occlusion; assay: Mouse MCAO model; assay type: in vivo, CD1 mice; conditions: 10 mg.kg-1 i.p. 30 minutes post-ischaemia then 10 mg.kg-1 b.i.d. for 3 days, histology on 4th day
Protocol: Male CD1 mice weighing 25-29 g were anaesthetised with tribromoethanol, placed on a heat-pad and maintained at 37° C. The mid-cerebral artery was cauterised and divided via the intra-cranial route. On completion of surgery the mice were placed in an incubator for 2 hours to maintain body temperature during the acute recovery phase. On the 4th day the mice were euthanased and the brains removed for histological analysis. The dosing protocol in these experiments was 10 mg.kg^-1 30 minutes post-ischaemia then 10 mg.kg^-1 b.i.d. for 3 days. Injections were given via the i.p. route, and the vehicle was distilled water.

[2] = system: voltage gated Ca2+ channel currents (remaining, predominantly N type, calcium current) in superior cervical ganglion neurons; assay: Ca2+ current measurement, whole cell recording in cultured superior cervical ganglion neurons; assay type: cell-based; conditions: 5 μM drug coapplied with 10 μM Nimodipine for three minutes; 10 mM Ba2+ as charge carrier; holding potential -80 mV, test potential 0 or +10 mV; Hydrochloride
Protocol: Lett., 77, 55-60 (1987). Cells were plated onto laminin coated plastic tissue culture dishes and incubated at 37° C. until just prior to recording. Electrophysiological recordings were performed from 2 to 9 days after dissociation. The pipette (internal solution) contained in mM: CsCl, 130; HEPES, 10; EGTA, 10; MgCl2, 4; ATP, 2; buffered to pH 7.2 with CsOH. Cells were bathed in a normal Tyrodes solution before establishment of whole cell recording when the bathing solution was changed to one allowing isolation of Ca^2+ currents. The external solution for recording Ca^2+ channel currents contained in mM: BaCl2, 10; TEA-Cl, 130; glucose, 10; HEPES, 10; MgCl2, 1; buffered to pH 7.3 with TEA-OH. […] Whole cell currents were recorded using List EPC-7 amplifiers and stored, digitised for later analysis using PC based software similar to that described previously (Benham & Tsien, Journal of Physiology (1988), 404, 767-784). Peak voltage gated Ca^2+ channel currents of up to 10 nA were recorded using 10 mM Ba^2+ as charge carrier. […] The rundown rate was measured in control conditions and extrapolated through the time of drug application to derive a rundown corrected control value. Once a constant calcium current had been recorded for 4 successive pulses (1 minute) 10 μM Nimodipine, a dihydropyridine, was applied to the cell to block L type calcium current. […]

[3] = system: histological damage in the CA1 region of the hippocampus after carotid artery occlusion; assay: Gerbil BCAO model; assay type: in vivo, Mongolian gerbils; conditions: 6 min carotid occlusion, 15 mg.kg-1 i.p. 30 minutes post-ischaemia then 5 mg.kg-1 b.i.d. for 3 days, histology on 5th day
Protocol: Male Mongolian gerbils weighing between 60-80 g were anaesthetised with halothane, placed on a heated mat and the carotid arteries occluded for 6 min. After reperfusion, the animals were sutured and placed in an incubator for 2 hours to maintain body temperature during the acute recovery phase. The animals were then caged separately and on the 5th day after the day of surgery they were euthanased and the brains removed for histological analysis. The dosing protocol in these experiments was 15 mg.kg^-1 30 minutes post-ischaemia then 5 mg.kg^-1 b.i.d. for 3 days. Injections were given via the i.p. route, and the vehicle was distilled water.

Row | Compound | attenuation of histological damage in the cerebral cortex compared with ischaemic vehicle-treated animals [1] | inhibition of plateau Ca2+ current [2] | attenuation of histological damage in the CA1 region of the hippocampus compared with ischaemic vehicle-treated animals [3]
1 | CN[C@H]1Cc2ccccc2[C@H]1Cc1ccc(Cl)c(Cl)c1.Cl (single isomer, unassigned) [Example 1, (+)cis-1-(3,4-Dichlorobenzyl)-2-methylaminoindane Hydrochloride] | significant attenuation of the histological damage | 95% | significant attenuation of the histological damage
2 | CN[C@H]1Cc2ccccc2[C@H]1Cc1ccc(Cl)c(Cl)c1.Cl (single isomer, unassigned) [Example 2, (-)cis-1-(3,4-Dichlorobenzyl)-2-methylaminoindane Hydrochloride] | significant attenuation of the histological damage | 99% | significant attenuation of the histological damage
